Data: US7867512B2, “Cross-linked polymersomes and related encapsulating membranes” (The Trustees of the University of Pennsylvania, priority 1999, dated 2011)

Assays:
[1] = Micropipette aspiration of vesicle membranes (bending and area expansion moduli, rupture); assay type: physicochemical; details: vesicles formed by electroformation
Experimental: The tool that has been used to measure many of the material properties of bilayer vesicles is “micropipette aspiration” as applied in FIG. 2. In micropipette aspiration, the rheology and material properties of micron-sized objects are measured using glass pipettes. Small, micron diameter pipettes are used to pick up, deform and manipulate micron-sized objects, such as giant lipid vesicles. The aspiration pressure is controlled by manometers, in which the hydrostatic pressure in a reservoir connected to the micropipette is varied in relation to a fixed reference. Pressure may be varied with a resolution of microns of H2O (or 10^−6 atm).
A deformable object is aspirated using a pressure driving force (or suction pressure), ΔP, and the object is drawn within the pipette to a projection length LP. […] The bending modulus is measured by exerting small tensions on the membrane, to smooth out thermally-driven surface undulations. […]
Analogous to a lipid bilayer, at low but increasing aspiration pressures, the thermally undulating polymersome membrane was progressively smoothed, increasing the projected area logarithmically with tension, τ, (FIG. 3A). From the slope of this increase (in tension units of mN/m) versus the fractional change, α, in vesicle area the bending modulus, Kb, was calculated (see, e.g., Evans et al., Phys. Rev. Lett. 64:2094 (1990); Helfrich et al., Nuovo Cimento D3:137 (1984)). […]

[2] = Lipid probe incorporation and diffusivity by laser-photobleaching; assay type: physicochemical
From the text: In the same way, mixtures can be made of the copolymer amphiphiles with other synthetic or non-synthetic amphiphiles, such as, lipids or proteins. […] FIGS. 6A and 6B show the uniformity of fluorescence around an aspirated contour of membrane with 3 mol % mixed in with polymer before vesicle formation.

Ka, elastic modulus for area expansion [1]: ~180 mN/m | lipid probe diffusivity [2]: approximately 3×10^−8 cm^2/s
Compound: CCCCCCCC/C=C\CCCCCCCC(=O)O[C@H](COC(=O)CCCCCCCCCCCCCCCCC)COP(=O)([O-])OCC[N+](C)(C)C [SOPC, 1-stearoyl-2-oleoyl phosphatidylcholine]
